Assay results: ChEMBL document CHEMBL5505975, “Design, synthesis and biological evaluation of CDC20 inhibitors for treatment of triple-negative breast cancer” (Eur J Med Chem, 2024)

Columns and labels:
[1] = test system: MCF7; assay: Antiproliferative activity against human MCF7 cells assessed as reduction in cell viability incubated for 96 hrs by MTT assay; details: MCF7, 96 h
[2] = test system: A549; assay: Antiproliferative activity against human A549 cells assessed as reduction in cell viability incubated for 96 hrs by MTT assay; details: A549, 96 h
[3] = test system: MDA-MB-468; assay: Antiproliferative activity against human MDA-MB-468 cells assessed as reduction in cell viability incubated for 96 hrs by MTT assay; details: MDA-MB-468, 96 h
[4] = test system: MDA-MB-231; assay: Antiproliferative activity against human MDA-MB-231 cells assessed as reduction in cell viability incubated for 96 hrs by MTT assay; details: MDA-MB-231, 96 h
[5] = Cytotoxicity against human L02 cells assessed as reduction in cell viability incubated for 96 hrs by MTT assay; type: toxicity, cell-based

Row | Compound | IC50 [1] | IC50 [2] | IC50 [3] | IC50 [4] | IC50 at 96 h [5]
1 | CCCCC(=O)NC(Nc1nc(Nc2cc(OC)c(OC)c(OC)c2)c2cc[nH]c2n1)C(Cl)(Cl)Cl (stereo not given) | 19.4 µM | 14.3 µM | > 20 µM | 10.5 µM | > 20 µM
2 | CCC(=O)NC(n1cnc2c(Nc3cc(OC)cc(OC)c3)nc(N)nc21)C(Cl)(Cl)Cl (stereo not given) | > 20 µM | > 20 µM | > 20 µM | > 20 µM | > 20 µM
3 | CCC(=O)NC(Nc1nc(Nc2cc(OC)cc(OC)c2)c2cc[nH]c2n1)C(Cl)(Cl)Cl (stereo not given) | > 20 µM | > 20 µM | > 20 µM | > 20 µM | > 20 µM
4 | CCC(=O)NC(n1cnc2c(Nc3ccc(C(F)(F)F)cc3)nc(N)nc21)C(Cl)(Cl)Cl (stereo not given) | 10.2 µM | 10.4 µM | 11.3 µM | 9.56 µM | 12.3 µM
5 | CCCc1ccc(Nc2nc(NC(NC(=O)CC)C(Cl)(Cl)Cl)nc3[nH]ccc23)cc1 (stereo not given) | > 20 µM | > 20 µM | > 20 µM | > 20 µM | > 20 µM
6 | CCCCC(=O)NC(Nc1nc(Nc2ccc(C(F)(F)F)cc2)c2cc[nH]c2n1)C(Cl)(Cl)Cl (stereo not given) | 7.58 µM | 7.26 µM | 13.2 µM | 7.36 µM | 8.85 µM
7 | CCC(=O)NC(Nc1nc(Nc2ccc(OC)c(Cl)c2)c2cc[nH]c2n1)C(Cl)(Cl)Cl (stereo not given) | > 20 µM | > 20 µM | > 20 µM | > 20 µM | > 20 µM
8 | O=C(NC(Nc1nc(Nc2ccc(C(F)(F)F)cc2)c2cc[nH]c2n1)C(Cl)(Cl)Cl)C1CC1 (stereo not given) | 6.71 µM | 6.66 µM | 10.2 µM | 5.97 µM | 16.1 µM
9 | CCCC(=O)NC(Nc1nc(Nc2cc(OC)cc(OC)c2)c2cc[nH]c2n1)C(Cl)(Cl)Cl (stereo not given) | > 20 µM | > 20 µM | > 20 µM | > 20 µM | > 20 µM
10 | CCC(=O)NC(Nc1nc(Nc2ccc(OC)c(OC)c2)c2cc[nH]c2n1)C(Cl)(Cl)Cl (stereo not given) | > 20 µM | > 20 µM | > 20 µM | > 20 µM | > 20 µM
11 | CCC(=O)NC(n1cnc2c(Nc3ccc4c(c3)OCO4)nc(N)nc21)C(Cl)(Cl)Cl (stereo not given) | > 20 µM | > 20 µM | > 20 µM | > 20 µM | > 20 µM
12 | CCC(=O)NC(Nc1nc(Nc2ccc(C(F)(F)F)nc2)c2cc[nH]c2n1)C(Cl)(Cl)Cl (stereo not given) | > 20 µM | > 20 µM | > 20 µM | 19.8 µM | > 20 µM
13 | CCCC(=O)NC(Nc1nc(Nc2ccc(C(F)(F)F)cc2)c2cc[nH]c2n1)C(Cl)(Cl)Cl (stereo not given) | 6.58 µM | 7.32 µM | 9.62 µM | 7.32 µM | 10.2 µM
14 | CCC(=O)NC(Nc1nc(Nc2ccc(C(F)(F)F)cc2)c2cc[nH]c2n1)C(Cl)(Cl)Cl (stereo not given) | 6.21 µM | 7.98 µM | 10.1 µM | 7.79 µM | 12.8 µM
15 | CCC(=O)NC(Nc1nc(Nc2ccc3scnc3c2)c2cc[nH]c2n1)C(Cl)(Cl)Cl (stereo not given) | > 20 µM | > 20 µM | > 20 µM | > 20 µM | > 20 µM
16 | O=C(NC(Nc1nc(Nc2ccc(C(F)(F)F)cc2)c2cc[nH]c2n1)C(Cl)(Cl)Cl)C1CCCCC1 (stereo not given) | 8.17 µM | 9.3 µM | 9.15 µM | 8.69 µM | 11.6 µM
17 | CCC(=O)NC(Nc1nc(Nc2ccc(C(F)(F)F)cc2F)c2cc[nH]c2n1)C(Cl)(Cl)Cl (stereo not given) | 13.6 µM | 11.2 µM | 14.1 µM | 12.6 µM | 14 µM

Row | Compound | IC50 [1] | IC50 [2] | IC50 [3] | IC50 [4] | IC50 at 96 h [5]
18 | CCC(=O)NC(n1cnc2c(Nc3ccc(OC)c(Cl)c3)nc(N)nc21)C(Cl)(Cl)Cl (stereo not given) | > 20 µM | > 20 µM | > 20 µM | > 20 µM | > 20 µM
19 | COc1cc(Nc2nc(NC(NC(=O)C3CCCCC3)C(Cl)(Cl)Cl)nc3[nH]ccc23)cc(OC)c1 (stereo not given) | > 20 µM | > 20 µM | > 20 µM | > 20 µM | > 20 µM
20 | CCC(=O)NC(Nc1nc(Nc2ccc(OC)cc2)c2cc[nH]c2n1)C(Cl)(Cl)Cl (stereo not given) | > 20 µM | > 20 µM | > 20 µM | > 20 µM | > 20 µM
21 | CCCC(=O)NC(Nc1nc(Nc2cc(OC)c(OC)c(OC)c2)c2cc[nH]c2n1)C(Cl)(Cl)Cl (stereo not given) | 19.6 µM | > 20 µM | 17.2 µM | 9.91 µM | 14.4 µM
22 | CCCCCC(=O)NC(Nc1nc(Nc2ccc(C(F)(F)F)cc2)c2cc[nH]c2n1)C(Cl)(Cl)Cl (stereo not given) | 6.97 µM | 8.36 µM | 12 µM | 6.15 µM | 14.4 µM
23 | COc1cc(Nc2nc(NC(NC(=O)C3CCCCC3)C(Cl)(Cl)Cl)nc3[nH]ccc23)cc(OC)c1OC (stereo not given) | 13.7 µM | 10.8 µM | 12.3 µM | 11.4 µM | 14 µM
24 | CCC(=O)NC(Nc1nc(Nc2ccc(C(F)(F)F)cc2Cl)c2cc[nH]c2n1)C(Cl)(Cl)Cl (stereo not given) | 17.7 µM | 6.92 µM | > 20 µM | 12.7 µM | 14.5 µM
25 | O=C(NC(Nc1nccc(Nc2ccc(C(F)(F)F)cc2)n1)C(Cl)(Cl)Cl)C1CC1 (stereo not given) | > 20 µM | > 20 µM | > 20 µM | > 20 µM | > 20 µM
26 | CCC(=O)NC(Nc1nc(Nc2ccc(OC(F)(F)F)cc2)c2cc[nH]c2n1)C(Cl)(Cl)Cl (stereo not given) | 11.8 µM | 11.3 µM | 18.1 µM | 16.1 µM | 25.3 µM
27 | CCCCCC(=O)NC(Nc1nc(Nc2cc(OC)c(OC)c(OC)c2)c2cc[nH]c2n1)C(Cl)(Cl)Cl (stereo not given) | 16.7 µM | 10.8 µM | 15.2 µM | 8.25 µM | 12.3 µM
28 | CCC(=O)NC(n1cnc2c(Nc3ccc(OC)cc3)nc(N)nc21)C(Cl)(Cl)Cl (stereo not given) | > 20 µM | > 20 µM | > 20 µM | > 20 µM | > 20 µM
29 | CCCCCC(=O)NC(Nc1nc(Nc2cc(OC)cc(OC)c2)c2cc[nH]c2n1)C(Cl)(Cl)Cl (stereo not given) | > 20 µM | > 20 µM | > 20 µM | > 20 µM | > 20 µM
30 | CCC(=O)NC(Nc1nc(Nc2ccc(OC(F)(F)F)c(F)c2)c2cc[nH]c2n1)C(Cl)(Cl)Cl (stereo not given) | 9.27 µM | 7.52 µM | > 20 µM | 10.1 µM | 7.55 µM
31 | CCC(=O)NC(Nc1nc(Nc2cc(OC)c(OC)c(OC)c2)c2cc[nH]c2n1)C(Cl)(Cl)Cl (stereo not given) | 14.7 µM | 11.6 µM | 15.9 µM | 8.81 µM | 9.01 µM
32 | CCC(=O)NC(Nc1nc(Nc2cc(F)c(OC)c(F)c2)c2cc[nH]c2n1)C(Cl)(Cl)Cl (stereo not given) | 7.2 µM | 8.79 µM | 10.4 µM | 8.07 µM | 14.5 µM
33 | CCCCC(=O)NC(Nc1nc(Nc2cc(OC)cc(OC)c2)c2cc[nH]c2n1)C(Cl)(Cl)Cl (stereo not given) | > 20 µM | > 20 µM | > 20 µM | > 20 µM | > 20 µM
